# Where a SMILES comes first, the peptide text is derived from it.
# Assays:
# MMP-9 = biological target: T1, MMP-9 (Oryctolagus cuniculus, UniProt P41246); experiment: Gelatin zymography of HIG-82 culture supernatant pre-incubated with inhibitors (FIG. 4A); type: biochemical, rabbit; details: APMA-activated HIG-82 supernatant, 5 μM peptide, 1 h at 25° C.
# T1 construct: endogenous in cells; host or cells: HIG-82 rabbit synoviocytes (ATCC CRL-1832), IL-1β-induced, culture supernatant
# Experimental: (§1) Gelatinase activity in the supernatants from cells induced with IL-1β (5 ng) for 48 h was analyzed by gelatin zymography. (A) Supernatants (activated with final 1 mM APMA at 30° C. for 30 min) were pre-incubated with various inhibitors. (5 μM peptides or 1-2 μM Calbiochem MMP inhibitor II) for 1 h at 25° C. prior to zymographic analyses—Lane 1, without activation (no inhibitor); Lane 2, with activation (no inhibitor); Lanes 3-8, with activation plus inhibitor: 3, P-NT-II; 4, PIP [59-67] monomer; 5, PIP [57-67] dimer; 6, PIP [59-67] dimer; 7 and 8, positive control MMP Inhibitor II (Calbiochem) at 1 and 2 μM concentrations. (B) Rabbit synovial fibroblasts were stimulated by IL-1β in the presence or absence of 1-10 μM of PIP [59-67] dimer for 48 h. Culture supernatants were concentrated by centrifugation (Centricon centrifugal filter devices, M.W. cutoff 30,000) and activated with APMA (1 mM final) before measurement of gelatinase activity by gelatin zymography. Lanes: 1 (−peptide−APMA); 2 (−peptide+APMA); 3 (+1 μM peptide+APMA); 4 (+5 μM peptide+APMA); 5 (+7.5 μM peptide+APMA); 6 (+10 μM peptide+APMA). […]
# MMP-2 = biological target: T2, MMP-2 (Oryctolagus cuniculus, UniProt P50757); experiment: as above; type: biochemical, rabbit; details: APMA-activated HIG-82 supernatant, 5 μM peptide, 1 h at 25° C.
# T2 construct: endogenous in cells; host or cells: HIG-82 rabbit synoviocytes (ATCC CRL-1832), IL-1β-induced, culture supernatant
# T2 sequence (P50757 110-662): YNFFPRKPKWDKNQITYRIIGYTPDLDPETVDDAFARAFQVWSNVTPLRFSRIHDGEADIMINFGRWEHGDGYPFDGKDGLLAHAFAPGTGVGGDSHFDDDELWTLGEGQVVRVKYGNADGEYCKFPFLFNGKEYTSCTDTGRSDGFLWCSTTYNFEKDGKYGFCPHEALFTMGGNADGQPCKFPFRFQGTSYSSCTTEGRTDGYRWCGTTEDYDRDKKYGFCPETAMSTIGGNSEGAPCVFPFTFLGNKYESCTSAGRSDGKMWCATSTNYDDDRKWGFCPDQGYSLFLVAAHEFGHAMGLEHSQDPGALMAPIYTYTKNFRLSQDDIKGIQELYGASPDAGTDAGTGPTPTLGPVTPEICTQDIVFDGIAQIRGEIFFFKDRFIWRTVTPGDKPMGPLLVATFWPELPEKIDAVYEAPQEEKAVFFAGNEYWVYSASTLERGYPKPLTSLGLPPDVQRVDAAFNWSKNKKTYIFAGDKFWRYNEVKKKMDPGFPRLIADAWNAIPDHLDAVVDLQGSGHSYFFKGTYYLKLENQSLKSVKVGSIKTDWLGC
# Experimental: as §1
# [1] = biological target: T3, MMP-1, secreted from IL-1 β-stimulated rabbit synovial fibroblasts (Oryctolagus cuniculus, UniProt P13943); experiment: Secreted MMP-1 activity of IL-1β-stimulated rabbit synovial fibroblasts; type: cell-based
# T3 construct: endogenous in cells; host or cells: HIG-82 rabbit fibroblast-like synoviocytes (ATCC CRL-1832)
# T3 sequence (P13943 99-468): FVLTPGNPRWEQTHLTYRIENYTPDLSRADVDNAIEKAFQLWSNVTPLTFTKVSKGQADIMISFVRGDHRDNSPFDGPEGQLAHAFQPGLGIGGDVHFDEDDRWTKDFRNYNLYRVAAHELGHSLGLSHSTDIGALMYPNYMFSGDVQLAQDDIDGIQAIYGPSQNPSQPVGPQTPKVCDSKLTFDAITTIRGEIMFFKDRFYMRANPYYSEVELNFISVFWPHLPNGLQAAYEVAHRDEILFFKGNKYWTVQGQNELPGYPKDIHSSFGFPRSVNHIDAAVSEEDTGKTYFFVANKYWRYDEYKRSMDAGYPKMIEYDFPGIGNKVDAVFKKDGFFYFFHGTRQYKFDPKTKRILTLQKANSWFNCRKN
# Experimental: FLSC culture and inhibition of extracellular MMP activity: All experiments were performed on HIG-82 rabbit fibroblast-like synoviocytes (FLSCs) obtained from American Type Culture Collection (Manassas, Va.; catalogue No. CRL-1832). FLSCs were grown in Ham's F-12 medium containing 10% fetal bovine serum (FBS) and 1% penicillin/streptomycin, as recommended by the supplier. For experimental purposes, FLSCs were seeded into 12-well plates, grown to near confluence, and then serum starved (Ham's F-12 without FBS or penicillin/streptomycin) for 16 h. After serum starvation of FLSCs, supernatants were removed and replaced with fresh Ham's F-12 medium for 60 min at 37° C./5% CO2 before incubation for 2 h with various concentrations (1-10 μM) of test inhibitor peptides: P-NT.II, PIP [59-67] monomer and dimer. FLSCs were then stimulated for 24 h with IL-1β (10 ng/mL), and the supernatants concentrated by centrifugation in Centricon centrifugal filter devices (M.W. cutoff 30,000) for 35 min at 5000 rpm at 4° C. After activation with APMA (1 mM final concentration), the samples were measured for MMP-1 activity using BIOMOL AK-404 QuantiZyme Assay system, and for MMP-2 and -9 activities by gelatin zymography.
# secreted MMP-2 = biological target: T4, secreted MMP-2 (Oryctolagus cuniculus, UniProt P50757); experiment: Secreted gelatinase activity of IL-1β-stimulated rabbit synovial fibroblasts treated with peptide (FIG. 4B); type: cell-based; details: cells treated with 1-10 μM peptide, IL-1β stimulation
# T4 construct: endogenous in cells; host or cells: HIG-82 rabbit fibroblast-like synoviocytes (ATCC CRL-1832)
# T4 sequence (P50757 110-662): T2 sequence (P50757 110-662)
# Experimental: (§2) Gelatinase activity in the supernatants from cells induced with IL-1β (5 ng) for 48 h was analyzed by gelatin zymography. (A) Supernatants (activated with final 1 mM APMA at 30° C. for 30 min) were pre-incubated with various inhibitors. (5 μM peptides or 1-2 μM Calbiochem MMP inhibitor II) for 1 h at 25° C. prior to zymographic analyses—Lane 1, without activation (no inhibitor); Lane 2, with activation (no inhibitor); Lanes 3-8, with activation plus inhibitor: 3, P-NT-II; 4, PIP [59-67] monomer; 5, PIP [57-67] dimer; 6, PIP [59-67] dimer; 7 and 8, positive control MMP Inhibitor II (Calbiochem) at 1 and 2 μM concentrations. (B) Rabbit synovial fibroblasts were stimulated by IL-1β in the presence or absence of 1-10 μM of PIP [59-67] dimer for 48 h. Culture supernatants were concentrated by centrifugation (Centricon centrifugal filter devices, M.W. cutoff 30,000) and activated with APMA (1 mM final) before measurement of gelatinase activity by gelatin zymography. Lanes: 1 (−peptide−APMA); 2 (−peptide+APMA); 3 (+1 μM peptide+APMA); 4 (+5 μM peptide+APMA); 5 (+7.5 μM peptide+APMA); 6 (+10 μM peptide+APMA).
# (§3) Gelatin zymography: human synovial fluid, purified human recombinant MMP-2 and -9 or APMA-activated concentrated culture supernatant samples (10 μL) was mixed (1:1) with Laemmli sample buffer, loaded on 4% acrylamide stacking gel and electrophoresed (120 V) at 4° C. on a 10% acrylamide-resolving minigel containing 0.1% gelatin. After electrophoresis for 1 h, the gels were soaked in 2.5% Triton X-100 on a shaker for 1 h, changing the solution after 30 min, to eliminate SDS. After overnight incubation in zymogen activation buffer [50 mM Tris-HCl, pH 7.5, containing 10 mM CaCl2 and 5 mM ZnCl2] at 37° C., the gels were rinsed in distilled water, and stained for 3 hr with […], after which clear bands of digested gelatin were clearly visible. The gels were briefly rinsed in distilled water and scanned by the Bio-Rad GS-710 Calibrated Imaging Densitometer.
# (§4) FLSC culture and inhibition of extracellular MMP activity: All experiments were performed on HIG-82 rabbit fibroblast-like synoviocytes (FLSCs) obtained from American Type Culture Collection (Manassas, Va.; catalogue No. CRL-1832). FLSCs were grown in Ham's F-12 medium containing 10% fetal bovine serum (FBS) and 1% penicillin/streptomycin, as recommended by the supplier. For experimental purposes, FLSCs were seeded into 12-well plates, grown to near confluence, and then serum starved (Ham's F-12 without FBS or penicillin/streptomycin) for 16 h. […] After activation with APMA (1 mM final concentration), the samples were measured for MMP-1 activity using BIOMOL AK-404 QuantiZyme Assay system, and for MMP-2 and -9 activities by gelatin zymography.
# secreted MMP-9 = biological target: T5, secreted MMP-9 (Oryctolagus cuniculus, UniProt P41246); experiment: as above; type: cell-based; details: cells treated with 1-10 μM peptide, IL-1β stimulation
# T5 construct: endogenous in cells; host or cells: HIG-82 rabbit fibroblast-like synoviocytes (ATCC CRL-1832)
# Experimental: as §2, §3, §4
# T5 sequence (P41246 107-707): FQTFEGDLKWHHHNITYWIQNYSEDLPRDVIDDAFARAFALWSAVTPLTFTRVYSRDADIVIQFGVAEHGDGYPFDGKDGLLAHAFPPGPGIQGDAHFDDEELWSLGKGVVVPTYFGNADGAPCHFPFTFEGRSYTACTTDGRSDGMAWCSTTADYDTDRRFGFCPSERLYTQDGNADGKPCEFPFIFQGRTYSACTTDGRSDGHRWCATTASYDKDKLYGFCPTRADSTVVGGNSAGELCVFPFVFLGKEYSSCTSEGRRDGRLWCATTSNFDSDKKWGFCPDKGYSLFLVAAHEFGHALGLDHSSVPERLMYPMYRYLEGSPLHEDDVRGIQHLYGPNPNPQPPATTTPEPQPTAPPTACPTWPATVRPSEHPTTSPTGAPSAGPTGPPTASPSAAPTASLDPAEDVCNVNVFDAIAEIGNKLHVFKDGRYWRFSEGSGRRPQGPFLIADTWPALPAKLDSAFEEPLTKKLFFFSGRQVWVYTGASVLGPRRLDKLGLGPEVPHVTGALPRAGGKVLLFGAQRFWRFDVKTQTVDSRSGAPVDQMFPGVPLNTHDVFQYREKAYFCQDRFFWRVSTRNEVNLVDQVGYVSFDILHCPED
# T1 sequence (P41246 107-707): as above
smiles,measurement,setting,value
CC[C@H](C)[C@H](NC(=O)[C@H](CC(=O)O)NC(=O)[C@@H](N)C(C)C)C(=O)N[C@@H](Cc1c[nH]cn1)C(=O)N[C@H](C(=O)N[C@@H](Cc1c[nH]c2ccccc12)C(=O)N[C@@H](CC(=O)O)C(=O)NCC(=O)N[C@H](C(=O)N[C@H](C(=O)N[C@@H](CC(=O)O)C(=O)N[C@H](C(=O)N[C@@H](Cc1c[nH]cn1)C(=O)N[C@H](C(=O)N[C@@H](Cc1c[nH]c2ccccc12)C(=O)N[C@@H](CC(=O)O)C(=O)NCC(=O)N[C@H](C(=O)O)C(C)C)C(C)C)[C@@H](C)CC)C(C)C)C(C)C)C(C)C [PIP [59-67] dimer] (H-VDIHVWDGVVDIHVWDGV-OH; N-terminus and C-terminus assumed),MMP-9 gelatinase activity vs control,MMP-9,insignificant
same,MMP-2 gelatinase activity vs control,MMP-2,insignificant
same,enzyme activity of secreted MMP-1,[1],markedly inhibited
same,activity of secreted MMP-2,secreted MMP-2,failed to inhibit
same,activity of secreted MMP-2,secreted MMP-2; listed as dimerized peptide,less marked
same,activity of secreted MMP-9,secreted MMP-9,failed to inhibit
same,activity of secreted MMP-9,secreted MMP-9; listed as dimerized peptide,less marked

# From patent publication US20070037253A1, “Methods and compositions for treatment of arthritis and cancer” (priority 2003, published 2007)
